The test system of assay [1] is A2780 (ovarian). The assay is described as follows: Anti-proliferative activity (Cell-Titre luminescence) against A2780 ovarian cancer cells. The format is cell-based. Particulars: Homo sapiens, A2780, 72 h, 72 h exposure, Cell-Titre luminescent reagent. On the procedure: (§1) The ability of compounds of the invention to inhibit the proliferation of cancer cells representative of non-small cell lung cancer and ovarian cancer (Table 2), pancreatic cancer, colorectal cancer and prostate cancer (Table 3) was assessed. Briefly, a predetermined number of cells as calculated from cell growth assays for each of the cell lines employed were seeded into their respective culture medium (using ATCC culture parameters—http://www.atcc.org) and cultured for 24 h at 37° C. and 5% CO2 in 96-well culture plates. Once attached, each cell line was then exposed to various concentrations of each respective analogue (30, 10, 3, 1, 0.3 and 0.1 μM), cultured for a further 72 h and exposed to Cell-Titre luminescent reagent (100 μL/well) for a further 30 min. Luminescence was captured using an EnVision multilabel reader and the data for each analogue concentration compared against no treatment control. Cell viability was normalised to control (vehicle alone) and dose response curves, and half maximal effective concentration (EC50) values were determined using Graph Pad Prism 6 (nonlinear regression sigmoidal dose-response variable slope).

Assay [2] has as its system A549 (NSCLC). The assay is described as follows: Anti-proliferative activity (Cell-Titre luminescence) against A549 non-small cell lung cancer cells. Type of assay: cell-based. Particulars: Homo sapiens, A549, 72 h, 72 h exposure, Cell-Titre luminescent reagent. The protocol: as §1

The results in this text go back to patent US20230339866A1, “Quinazoline compounds and the use thereof in the treatment of cancer” (TROBIO THERAPEUTICS PTY LTD, priority 2020, published 2023).

A value given as a limit tells only on which side of the number the result lay.

In the case of `CN(C)CCNc1nc(Nc2cccc(F)c2)nc2ccccc12` [Compound 63, N^4-(2-(dimethylamino)ethyl)-N^2-(3-fluorophenyl)quinazoline-2,4-diamine], the IC50 in assay [1] worked out at 5.67 µM; in assay [2] it was 19.8 µM.
The matching figures for `COc1ccc(CCNc2nc(NCCN(C)C)c3ccccc3n2)cc1` [Compound 65, N^4-(2-(dimethylamino)ethyl)-N^2-(4-methoxyphenethyl)quinazoline-2,4-diamine]: 6.17 µM and 19.4 µM.
With `CCc1ccc(CCNc2nc(NCCN(C)C)c3ccccc3n2)cc1` [Compound 66, N^4-(2-(dimethylamino)ethyl)-N^2-(4-ethylphenethyl)quinazoline-2,4-diamine], the IC50 in assay [1] is 13.7 µM; in assay [2], more than 30 µM.
The matching figures for `CN(C)CCNc1nc(NCCc2cccc(F)c2)nc2ccccc12` [Compound 67, N^4-(2-(dimethylamino)ethyl)-N^2-(3-fluorophenethyl)quinazoline-2,4-diamine]: 7.59 µM and 5.9 µM.
For `CN(C)CCNc1nc(NCCc2ccc(F)cc2)nc2ccccc12` [Compound 68, N^4-(2-(dimethylamino)ethyl)-N^2-(4-fluorophenethyl)quinazoline-2,4-diamine], in that order: 3.91 µM and 6.65 µM.
For the molecule `COc1ccc(Nc2nc(NCCCN(C)C)c3ccccc3n2)cc1` [Compound 70, N^4-(3-(dimethylamino)propyl)-N^2-(4-methoxyphenyl)quinazoline-2,4-diamine], the values for the IC50 in assay [1] and in assay [2] were 8.33 µM and 11.7 µM, respectively.
Take `CN(C)CCCNc1nc(Nc2cccc(F)c2)nc2ccccc12` [Compound 72, N^4-(3-(dimethylamino)propyl)-N^2-(3-fluorophenyl)quinazoline-2,4-diamine]: the figures for the IC50 in assay [1] and in assay [2] were 3.43 µM and 11.2 µM, respectively.
The matching figures for `CN(C)CCCNc1nc(Nc2ccc(F)cc2)nc2ccccc12` [Compound 73, N^4-(3-(dimethylamino)propyl)-N^2-(4-fluorophenyl)quinazoline-2,4-diamine]: 2.13 µM and 11.7 µM.
In the case of `CCc1ccc(CCNc2nc(NCCCN(C)C)c3ccccc3n2)cc1` [Compound 76, N^4-(3-(dimethylamino)propyl)-N^2-(4-ethylphenethyl)quinazoline-2,4-diamine], the IC50 in assay [1] stood at 7.11 µM; in assay [2] it was 8.88 µM.
Consider `FC(F)(F)c1cccc(Nc2nc(NCCc3c[nH]cn3)c3ccccc3n2)c1` [Compound 79, N^4-(2-(1H-imidazol-4-yl)ethyl)-N^2-(3-(trifluoromethyl)phenyl)quinazoline-2,4-diamine], for which the results for the IC50 in assay [1] and in assay [2] were 18.9 µM and more than 30 µM, respectively.
The matching figures for `OCCNc1nc(NCCc2cccc(F)c2)nc2ccccc12` [Compound 90, 2-((2-((3-fluorophenethyl)amino)quinazolin-4-yl)amino)ethan-1-ol]: 5.19 µM and 3.87 µM.
The matching figures for `OCCNc1nc(NCCc2ccc(F)cc2)nc2ccccc12` [Compound 91, 2-((2-((4-fluorophenethyl)amino)quinazolin-4-yl)amino)ethan-1-ol]: 5.42 µM and 6.76 µM.
Regarding `OCCCNc1nc(NCCc2cccc(F)c2)nc2ccccc12` [Compound 94, 3-((2-((3-fluorophenethyl)amino)quinazolin-4-yl)amino)propan-1-ol], the figures for the IC50 in assay [1] and in assay [2] were 4.59 µM and 5.57 µM, respectively.
For `CN(C)CCNc1nc(-n2cccc2)nc2ccccc12` [Compound 99, N^1-(2-(1H-pyrrol-1-yl)quinazolin-4-yl)-N^2,N^2-dimethylethane-1,2-diamine], in that order: 10.3 µM and 22.2 µM.
As to `CN(C)CCCNc1nc(-c2ccsc2)nc2ccccc12` [Compound 100, N^1,N^1-dimethyl-N^3-(2-(thiophen-3-yl)quinazolin-4-yl)propane-1,3-diamine], the IC50 in assay [1] was 11.8 µM; in assay [2], 19.4 µM.
Turning to `CN(C)CCCNc1nc(-c2ccc[nH]2)nc2ccccc12` [Compound 101, N^1-(2-(1H-pyrrol-2-yl)quinazolin-4-yl)-N^3,N^3-dimethylpropane-1,3-diamine], the IC50 in assay [1] was 12.5 µM; in assay [2], 11.6 µM.
In the case of `CN(C)CCCNc1nc(-c2cc[nH]c2)nc2ccccc12` [Compound 102, N^1-(2-(1H-pyrrol-3-yl)quinazolin-4-yl)-N^3,N^3-dimethylpropane-1,3-diamine], the half-maximal inhibitory concentration (IC50) in assay [1] amounted to 1.32 µM; in assay [2] it was 7.45 µM.
The matching figures for `CN(C)CCCNc1nc(-n2cccc2)nc2ccccc12` [Compound 103, N^1-(2-(1H-pyrrol-1-yl)quinazolin-4-yl)-N^3,N^3-dimethylpropane-1,3-diamine]: 16.5 µM and 24.1 µM.
In the case of `c1csc(-c2nc(NCCc3c[nH]cn3)c3ccccc3n2)c1` [Compound 104, N-(2-(1H-imidazol-4-yl)ethyl)-2-(thiophen-2-yl)quinazolin-4-amine], the IC50 in assay [1] and in assay [2] was more than 30 µM throughout.
Regarding `c1ccc2c(NCCc3c[nH]cn3)nc(-c3ccsc3)nc2c1` [Compound 105, N-(2-(1H-imidazol-4-yl)ethyl)-2-(thiophen-3-yl)quinazolin-4-amine], the IC50 was determined as 9.05 µM in assay [1] and 24.1 µM in assay [2].
Turning to `c1c[nH]c(-c2nc(NCCc3c[nH]cn3)c3ccccc3n2)c1` [Compound 106, N-(2-(1H-imidazol-4-yl)ethyl)-2-(1H-pyrrol-2-yl)quinazolin-4-amine], the IC50 in assay [1] amounted to 8.43 µM; in assay [2], 15.6 µM.
The matching figures for `c1ccc2c(NCCc3c[nH]cn3)nc(-c3cc[nH]c3)nc2c1` [Compound 107, N-(2-(1H-imidazol-4-yl)ethyl)-2-(1H-pyrrol-3-yl)quinazolin-4-amine]: 1.95 µM and 9.4 µM.
For `c1ccc2c(NCCc3c[nH]cn3)nc(-n3cccc3)nc2c1` [Compound 108, N-(2-(1H-imidazol-4-yl)ethyl)-2-(1H-pyrrol-1-yl)quinazolin-4-amine], in that order: 5.79 µM and 9.53 µM.
Turning to `OCCCNc1nc(-c2ccc[nH]2)nc2ccccc12` [Compound 109, 3-((2-(1H-pyrrol-2-yl)quinazolin-4-yl)amino)propan-1-ol], the IC50 is 13 µM in assay [1] and 21.1 µM in assay [2].
The matching figures for `OCCCNc1nc(-c2cc[nH]c2)nc2ccccc12` [Compound 110, 3-((2-(1H-pyrrol-3-yl)quinazolin-4-yl)amino)propan-1-ol]: 4.87 µM and 9.19 µM.
The matching figures for `OCCCNc1nc(-n2cccc2)nc2ccccc12` [Compound 111, 3-((2-(1H-pyrrol-1-yl)quinazolin-4-yl)amino)propan-1-ol]: more than 30 µM and more than 30 µM.
The matching figures for `FC(F)(F)c1cccc(CCNc2nc(NCCN3CCOCC3)c3ccccc3n2)c1` [Compound 113, N^4-(2-morpholinoethyl)-N^2-(3-(trifluoromethyl)phenethyl)quinazoline-2,4-diamine]: 2.54 µM and 8.79 µM.
As to `FC(F)(F)c1cccc(CCNc2nc(NCCN3CCCCC3)c3ccccc3n2)c1` [Compound 114, N^4-(2-(piperidin-1-yl)ethyl)-N^2-(3-(trifluoromethyl)phenethyl)quinazoline-2,4-diamine], the figures for the concentration for half-maximal inhibition (IC50) in assay [1] and in assay [2] were 0.937 µM and 2.36 µM, respectively.
For `FC(F)(F)c1cccc(CCNc2nc(NCCN3CCCC3)c3ccccc3n2)c1` [Compound 115, N^4-(2-(pyrrolidin-1-yl)ethyl)-N^2-(3-(trifluoromethyl)phenethyl)quinazoline-2,4-diamine], in that order: 1.24 µM and 2.52 µM.
For `COCCNc1nc(NCCc2cccc(C(F)(F)F)c2)nc2ccccc12` [Compound 116, N^4-(2-methoxyethyl)-N^2-(3-(trifluoromethyl)phenethyl)quinazoline-2,4-diamine], in that order: 1.39 µM and 3.6 µM.
For `COCCCNc1nc(NCCc2cccc(C(F)(F)F)c2)nc2ccccc12` [Compound 117, N^4-(3-methoxypropyl)-N^2-(3-(trifluoromethyl)phenethyl)quinazoline-2,4-diamine], in that order: 1.62 µM and 3.05 µM.
Turning to `NCCNc1nc(NCCc2cccc(C(F)(F)F)c2)nc2ccccc12` [Compound 118, N^4-(2-aminoethyl)-N^2-(3-(trifluoromethyl)phenethyl)quinazoline-2,4-diamine], the IC50 in assay [1] is 1.92 µM; in assay [2], 4.05 µM.
`NCCCNc1nc(NCCc2cccc(C(F)(F)F)c2)nc2ccccc12` [Compound 119, N^4-(3-aminopropyl)-N^2-(3-(trifluoromethyl)phenethyl)quinazoline-2,4-diamine]: the IC50 was determined as 0.759 µM in assay [1] and 2.46 µM in assay [2].
For the molecule `CN1CCN(CCNc2nc(NCCc3ccccc3C(F)(F)F)nc3ccccc23)CC1` [Compound 120, N^4-(2-(4-methylpiperazin-1-yl)ethyl)-N^2-(2-(trifluoromethyl)phenethyl)quinazoline-2,4-diamine], the IC50 in assay [1] worked out at 1.4 µM; in assay [2], 5.28 µM.
In the case of `CN1CCN(CCNc2nc(NCCc3ccccc3F)nc3ccccc23)CC1` [Compound 121, N^2-(2-fluorophenethyl)-N^4-(2-(4-methylpiperazin-1-yl)ethyl)quinazoline-2,4-diamine], the IC50 in assay [1] is 2.38 µM; in assay [2], 4 µM.
